Data on eight compounds can be found in publication PMC4851402, “Validation of N-myristoyltransferase as Potential Chemotherapeutic Target in Mammal-Dwelling Stages of Trypanosoma cruzi” (PLoS Neglected Tropical Diseases, 2016).

The subject of one data set is U2OS cells. Briefly: Cytotoxicity (viability) assay on non-infected U2OS cells, high-content imaging. It counts as cell-based, human. As to conditions: for EC50: Homo sapiens, read-out: U2OS cells EC50; for Toxicity on U2OS cells: after 48 h of treatment. As to the method:
(§1) DMSO control wells contained 30 μL 6% DMSO, whereas wells for the negative control contained 1% hydrogen peroxide in DMEM. U2OS cells were resuspended in DMEM, 10% HI-FBS, to give a cell density of 2 x 10^5 cells/mL, while ICA forms were resuspended in DMEM, 10% HI-FBS, to a final density of 1 x 10^7 per well. Epi forms were resuspended in LIT medium to a density of 1 x 10^6 parasites per well. Hundred and fifty microliters of the suspension containing either host cells or parasites were added per well. Following 47- and 23-h incubation at 37°C for mammalian cells and ICA, respectively, a mixture of propidium iodide (Invitrogen) and Hoechst dye (Invitrogen) diluted in culture media (1 μg/mL each) was added to the plates, which were then further incubated for 1 h at 37°C. […] In the case of Epi, after 68-h incubation at 28°C, 18 μL Alamar Blue (AbD Serotec, Raleigh, NC) were added per well. Following an additional 4-h incubation, the plate was read in a microplate fluorometer (Thermo Scientific) at excitation 560 nm, emission 590 nm. Three independent experiments were performed in triplicate wells.
(§2) EC50 were determined from three independent experiments.

Data set [1] relates to T. cruzi intracellular amastigote proliferation. Briefly: In vitro T. cruzi intracellular proliferation assay in infected U2OS cells, high-content imaging. It counts as cell-based, Trypanosoma cruzi (Y strain). The settings on record: read-out: T. cruzi proliferation assay EC50. As to the method: DMSO control wells contained 30 μL 6% DMSO. Human […] (U2OS cells) were diluted in DMEM, 10% heat inactivated-fetal bovine serum (HI-FBS) to give a cell density of 2 x 10^5 cells/mL. T. cruzi trypomastigotes were resuspended in DMEM, 10% HI-FBS to a final density of 1.2 x 10^7. Cells and parasites were mixed a ratio of 4 volumes of cells plus 1 volume of parasites. 150 μL of the mixture were dispensed per well. Plates were incubated for 48 h. After the incubation period, media was removed from the wells and 100 μL 4% paraformaldehyde (PFA) were added. After 15 min of incubation at room temperature, PFA was removed and cells and parasites were stained with Draq5 (BioStatus, Leicestershire, UK) at a concentration of 5 μM diluted in PBS. The plates were then read in a bioimager system as described below. Three independent experiments were performed in triplicate wells.
Filter sets appropriate for the excitation and emission spectra of Draq5 were utilized. Images from four fields (2 x 2 montage) were acquired per well with a 20x objective. To perform the host cell segmentation and counting of parasites, the BD AttoVision v1.6.2 Sub Object analysis was used. Draq5 creates a background, staining the host cell and parasite nucleus, but defining the cytoplasm as well, determining this way the amount of parasites within each mammalian cell. The host cell nucleus was excluded by size difference. Raw data was imported into the BD Image Data Explorer (BD Biosciences) to determine the percentage of infected cells containing at least 1, at least 3 or at least 5 intracellular parasites.
as §2

For data set [2], the system named is Purified ICAs of T. cruzi. Briefly: microbe, parasite or virus in culture. It counts as cell-based, Trypanosoma cruzi (Y strain). The settings on record: for EC50: read-out: Purified ICAs EC50. On the procedure:
Intracellular amastigote (ICA) forms were purified as described. Briefly, 5 x 10^6 LLC-MK2 cells were seeded in a 150-cm^2 tissue culture flask (NUNC, Thermo Scientific) and cells were grown for 3–4 days to reach confluency of ~2 x 10^7 cells per flask. The medium was then replaced with fresh complete medium and host cells were infected with 1 x 10^8 TCT (multiplicity of infection (MOI) ≈ 5). After 5 days, the infected monolayers were gently detached by scraping and resuspended in 5 mL phosphate-buffered saline (PBS). The suspension containing the infected cells was next transferred to an M-tube (Miltenyi Biotec Inc., San Diego, CA). This tube bears a special stator and rotor that allows for tissue homogenization. In addition, it has a pre-inserted mesh that retains larger particles, removing them from the homogenized sample. The tube was then placed in the gentleMACS Dissociator (Miltenyi Biotec) for the automated disruption of host cells. The homogenized sample containing the parasites was then passed through a column containing anion exchange preswollen microgranular diethylaminoethyl cellulose (DE52, Whatman, Sigma-Aldrich).
as §1, §2

For a further data set, the system named is T. brucei. Set-up: method as in PMID 20360736. The settings on record: T. brucei bloodstream forms; cited from earlier work.
Data set [3] relates to T. cruzi epimastigotes (Epi). Briefly: Cytotoxicity assay on epimastigotes (Alamar Blue). It counts as cell-based, Trypanosoma cruzi (Y strain). The settings on record: after 72 h; for EC50: Trypanosoma cruzi, read-out: Epi forms EC50. On the procedure: DDD compounds 1–8 and the reference drug BZ were prepared 6-fold-concentrated in 6% DMSO, to give a final concentration of 1x compound in 1% DMSO. […] DMSO control wells contained 30 μL 6% DMSO, whereas wells for the negative control contained 1% hydrogen peroxide in DMEM. U2OS cells were resuspended in DMEM, 10% HI-FBS, to give a cell density of 2 x 10^5 cells/mL, while ICA forms were resuspended in DMEM, 10% HI-FBS, to a final density of 1 x 10^7 per well. Epi forms were resuspended in LIT medium to a density of 1 x 10^6 parasites per well. Hundred and fifty microliters of the suspension containing either host cells or parasites were added per well. Following 47- and 23-h incubation at 37°C for mammalian cells and ICA, respectively, a mixture of propidium iodide (Invitrogen) and Hoechst dye (Invitrogen) diluted in culture media (1 μg/mL each) was added to the plates, which were then further incubated for 1 h at 37°C. Finally, plates were read in the BD Pathway 855 bioimager system. In the case of Epi, after 68-h incubation at 28°C, 18 μL Alamar Blue (AbD Serotec, Raleigh, NC) were added per well. Following an additional 4-h incubation, the plate was read in a microplate fluorometer (Thermo Scientific) at excitation 560 nm, emission 590 nm. Three independent experiments were performed in triplicate wells. […] EC50 were determined from three independent experiments.
A general note: The colour change of resazurin is a common sign of viable cells or microbes.

Data set [4] concerns TcNMT. Briefly: Metabolic labeling with myristic acid, azide and in-gel western blotting (on-target). It counts as cell-based, Trypanosoma cruzi. As to conditions: 10 μM, 12 h, Epi, ICA and TCT. As to the method:
Parasites were incubated with or without 10 μM of the inhibitor 1, 5, or 8 in 1 mL 2% delipidated BSA-DMEM at 37°C for ICA and TCT and at 28°C for Epi. After 6 h, 100 μM myristic acid, azide (from a 50-mM stock in DMSO) were added to the samples, and the same volume of DMSO was added to the negative control. Cells were incubated for another 6 h, for a 12-h treatment with the inhibitors. Next, the parasites were washed three times with PBS and lysed in 1% SDS, Tris-HCl, pH 8.0. “Click” reaction was performed between the myristic acid azide and Biotin Alkyne (Invitrogen) according to the manufacturer instructions using the Click-iT Protein Reaction Buffer Kit (Invitrogen). Duplicate aliquots of lysates were ran in 10% SDS-PAGE followed by fixing (5% acetic acid, 50% isopropanol) for 15 min. Gels were then analyzed by in-gel western blotting using IRDye streptavidin (LI-COR Biosciences, Lincoln, NE) 1:7500 in 5% BSA, 0.05% SDS, 0.2% Tween in PBS, for 1 h at room temperature. They were subsequently treated or not with 0.2 M NaOH in methanol for 1 h at room temperature. Gels were scanned in an ODYSSEY quantitative imagining system (LI-COR Biosciences). They were next stained with Coomassie blue and scanned again to determine total protein levels.

Data set [5] relates to Epi, ICA and TCT forms of T. cruzi. Briefly: [35S]-Methionine labeling (protein translation). As to conditions: 10 μM, 12 h. It counts as cell-based, Trypanosoma cruzi. On the procedure:
Parasites were incubated with or without 10 μM of the inhibitors as described above. After 10 h, cells were starved in methionine deficient media for 1 h. Next, 20 μCi.mL^-1 [^35S]-methionine (Perkin Elmer) were added to the samples for 1 h incubation, for a 12-h treatment with the inhibitors. Next, the parasites were washed three times with PBS and lysed in 1% SDS, Tris-HCl, pH 8.0. Samples were ran in 4–12% gels (Expedeon, San Diego, CA) and transferred to polyvinylidene fluoride (PVDF) membranes (Sigma-Aldrich). Membranes were dried and exposed to Hyperfilm ECL (Amersham, GE Healthcare Lifesciences, Piscataway, NJ). To determine total protein levels, membranes were stained with Ponceau S after exposure.

For data set [6], the system named is TcNMT. Briefly: Western blotting of TcNMT expression in treated parasites. It counts as cell-based, Trypanosoma cruzi. The settings on record: 10 μM, 12 h. On the procedure: Parasites (1 x 10^7 cells) were incubated with or without 10 μM of the inhibitor (compound 1, 5, or 8) in 1 mL 10% HI-FBS, DMEM at 37°C for ICA and TCT, and at 28°C for Epi for 12 h. Next, parasites were washed three times with PBS and lysed in 1% SDS, Tris-HCl, pH 8.0. Samples were run in 10% SDS-PAGE followed by western blot probed with anti-TcNMT at dilution 1:1000 in 5% milk-PBS overnight. This was followed by incubation with anti-rabbit IgG-HRP conjugated. The membrane was next stripped with boiling stripping buffer (3% SDS, 0.3% β-mercaptoethanol) for 10 min, followed by 4 washes with 0.1% PBS-T. It was then blot again with anti-BiP at dilution 1:500 in 5% milk-PBS overnight, at 4°C, followed by anti-rabbit IgG HRP-conjugated.

Setting [7] is: non-infected U2OS cells, 48 h at 37°C.
[8] abbreviates: Trypanosoma cruzi, U2OS, 48 h, infected U2OS cells, 48 h at 37°C.
Setting [9] is: Trypanosoma cruzi, 24 h, purified ICAs, 24 h at 37°C.

“Also recorded” adds a separate entry of the source. Like-named read-outs stand apart in the source and are kept apart here. A value given as a limit tells only on which side of the number the result lay.

Take `Cc1nn(C)c(Cl)c1NS(=O)(=O)c1c(Cl)cc(-c2ccnc(N3CCNCC3)c2)cc1Cl` [Compound 2]: the EC50 in the data set with U2OS cells (setting [7]) is over 50000 nM; in data set [1] (setting [8]) it was 1140 nM; in data set [1] (infected U2OS cells, 48 h at 37°C) it was 1100 nM; in data set [2] (setting [9]) it was over 50000 nM. In data set [2] (purified ICA), the “Trypanocidal activity against purified ICA forms” value was “no significant trypanocidal activity; also recorded: not trypanocidal”. In addition, in the data set with T. brucei, the “Efficacy in mouse model of human African trypanosomiasis” value is given as “curative”.
For the compound `Cc1c(NS(=O)(=O)c2c(Cl)cc(-c3ccnc(N4CCNCC4)c3)cc2Cl)c(CC(C)C)nn1C` [Compound 1], the EC50 is 12800 nM with U2OS cells (setting [7]); 180 nM in data set [1] (setting [8]); 1830 nM in data set [2] (setting [9]); 1800 nM in data set [2] (purified ICAs, 24 h at 37°C). Moreover, the “Toxicity on U2OS cells” value in the data set with U2OS cells is on record as “toxicity only at 50 μM”. Further, the “Effect on Epi parasite viability” value in data set [3] is “did not have a significant effect”. Further, the “Protein N-myristoylation bands (myristic acid azide labeling)” value (“Protein N-myristoylation bands” below) with TcNMT [4] is listed as “decreased intensity or complete loss of most of the bands”. In addition, the “Incorporation of [35S]-methionine into proteins” value (“Incorporation” below) in data set [5] was “no effect”. The “TcNMT expression in Epi” value in the data set on TcNMT [6] is listed as “overexpression of TcNMT”.
As to `Cc1nn(C)c(C)c1N(C(F)F)S(=O)(=O)c1c(Cl)cc(CCCC2CCN(C)CC2)cc1Cl` [Compound 5], the EC50 in the data set on U2OS cells (setting [7]) came out at 11400 nM; in data set [1] (setting [8]), 260 nM; in data set [2] (setting [9]) it was 60 nM; in data set [3], 9700 nM. Besides, in the data set on U2OS cells, the “Toxicity on U2OS cells” value is “toxicity only at 50 μM”. Also, the “Protein N-myristoylation bands” value in the data set with TcNMT [4] is recorded as “decreased intensity or complete loss of most of the bands”. In data set [5], the “Incorporation” value is “no effect”. The “TcNMT expression in Epi” value in the data set on TcNMT [6] is reported as “overexpression of TcNMT”.
For `Cc1c(NS(=O)(=O)c2ccc(-c3cccc(CN(C)C)c3)cc2)c(CC(C)C)nn1C` [Compound 6], the EC50 was over 50000 nM with U2OS cells (setting [7]), 990 nM in data set [1] (setting [8]) and over 50000 nM in data set [2] (setting [9]).
On to `Cc1nn(C)c(C)c1N(C(F)F)S(=O)(=O)c1c(Cl)cc(CCCCC2CCN(C)CC2)cc1Cl` [Compound 8], for which the EC50 with U2OS cells (setting [7]) worked out at 11900 nM; in data set [1] (setting [8]) it was 350 nM; in data set [2] (setting [9]), 20 nM; in data set [3] it was 2100 nM. For the same compound, the “Toxicity on U2OS cells” value in the data set with U2OS cells was “toxicity only at 50 μM”. For the same compound, the “Protein N-myristoylation bands” value in the data set with TcNMT [4] was “decreased intensity or complete loss of most of the bands”. The “Incorporation” value in data set [5] is given as “no effect”. The “TcNMT expression in Epi” value in the data set on TcNMT [6] is given as “overexpression of TcNMT”.
`Cc1nn(C)c(C)c1N(CC(F)(F)F)S(=O)(=O)c1c(Cl)cc(CCCC2CCN(C)CC2)cc1Cl` [Compound 7]: the values for the EC50 (in the data set on U2OS cells (setting [7]); in data set [1] (setting [8]); in data set [2] (setting [9])) were 13900 nM, 1010 nM and 11100 nM, respectively.
On to `Cc1c(NS(=O)(=O)c2ccc(CCCC3CCN(C)CC3)cc2)c(CC(C)C)nn1C` [Compound 4], for which the EC50 with U2OS cells (setting [7]) is over 50000 nM; in data set [1] (setting [8]), 540 nM; in data set [2] (setting [9]), over 50000 nM.
For the compound `Cc1nn(C)c(C)c1NS(=O)(=O)c1c(Cl)cc(CCCN2CCN(C)CC2)cc1Cl` [Compound 3], the EC50 in the data set with U2OS cells (U2OS, 48 h) is over 50000 nM; in data set [1] (Trypanosoma cruzi, U2OS, 48 h), 10300 nM; in data set [2] (Trypanosoma cruzi, 24 h), over 50000 nM.
